Experimental data published in patent US6518243B1, “Desleucyl glycopeptide antibiotics and methods of making same” (Trustees of Princeton University, priority 1999, dated 2003).

What was measured:
Assay type in all cases: cell-based
[1] = tested on: E. faecium CL 4931; assay: MIC determination in BHI media, OD600; settings: BHI + 0.1% casamino acids, 18 hours at 37° C., ≧90% OD600 inhibition
Experimental: (§1) Logarithmically growing cells were diluted to approximately 5×10^5 CFU/ml and subjected to test compounds solubilized and serially diluted in DMSO. […] After 18 hours at 37° C., the OD600 was determined by reading the ninety-six well microtiter plates on a microplate reader. For a given concentration, an MIC determination was made if: […]

[2] = tested on: E. faecium ATCC 49624; assay: MIC determination in BHI media, OD600; settings: BHI + 0.1% casamino acids, 18 hours at 37° C., ≧90% OD600 inhibition
Experimental: as §1

[3] = tested on: S. aureus (ATCC 29213); assay: Zone of inhibition screen, 96 well agar array format; set-up: scale not given here
In short: (§2)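 Panel screening of every compound against several bacterial strains, among them E. faecium ATCC 49624, was done in a 96-well agar array.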

[4] = tested on: S. epidermidis (ATCC 12228); assay: as above; set-up: scale not given here
In short: as §2

[5] = tested on: E. faecalis (CL 4877); assay: as above; set-up: scale not given here; settings: zone of inhibition relative to 1 mg/ml p-chlorobiphenylvancomycin
In short: as §2

[6] = tested on: S. Aureus ATCC 33591; assay: MIC determination in BHI media, OD600; settings: BHI + 0.1% casamino acids, 18 hours at 37° C., ≧90% OD600 inhibition
Experimental: as §1

[7] = tested on: S aureus ATCC 29213; assay: MIC determination in BHI media, OD600; settings: BHI + 0.1% casamino acids, 18 hours at 37° C., ≧90% OD600 inhibition
Experimental: as §1

[8] = zone of inhibition relative to 1 mg/ml stock solution of p-chlorobiphenylvancomycin
[9] = zone of inhibition relative to 1 mg/ml p-chlorobiphenylvancomycin

CC1OC(OC2C(Oc3c4cc5cc3Oc3ccc(cc3Cl)C(O)C3NC(=O)C(NC(=O)C5NC(=O)C(CC(N)=O)NC(=O)C(NC(=O)C(CC(N)=O)NC(=O)OC(C)(C)C)C(O)c5ccc(c(Cl)c5)O4)c4ccc(O)c(c4)-c4c(O)cc(O)cc4C(C(=O)O)NC3=O)OC(CO)C(O)C2O)CC(C)(NCc2ccc(-c3ccc(Cl)cc3)cc2)C1O (centres unmarked) [Compound 135] was tested, and the MIC E. faecium CL 4931 [1] was > 25 µg/mL, the MIC E. faecium ATCC 49624 [2] was 0.39 µg/mL and the “zone score, S. aureus ATCC 29213” value [3, 8] was 2. The “zone score, S. epidermidis ATCC 12228” value [4, 8] was 2.

CCOCC(=O)NC1C(=O)NC(CC(N)=O)C(=O)NC2C(=O)NC3C(=O)NC(C(=O)NC(C(=O)O)c4cc(O)cc(O)c4-c4cc3ccc4O)C(O)c3ccc(c(Cl)c3)Oc3cc2cc(c3OC2OC(CO)C(O)C(O)C2OC2CC(C)(NCc3ccc(-c4ccc(Cl)cc4)cc3)C(O)C(C)O2)Oc2ccc(cc2Cl)C1O (centres unmarked) [Compound 287] was tested, and the MIC E. faecium CL 4931 [1] was 25 µg/mL, the “zone score, S. aureus ATCC 29213” value [3, 9] was 2 and the “zone score, S. epidermidis ATCC 12228” value [4, 9] was 2. For the same compound, the “zone score, E. faecalis CL 4877” value [5] was 2.

In the case of COCC(=O)NC1C(=O)NC(CC(N)=O)C(=O)NC2C(=O)NC3C(=O)NC(C(=O)NC(C(=O)O)c4cc(O)cc(O)c4-c4cc3ccc4O)C(O)c3ccc(c(Cl)c3)Oc3cc2cc(c3OC2OC(CO)C(O)C(O)C2OC2CC(C)(NCc3ccc(-c4ccc(Cl)cc4)cc3)C(O)C(C)O2)Oc2ccc(cc2Cl)C1O (centres unmarked) [Compound 303], the MIC E. faecium CL 4931 [1] was 25 µg/mL and the “zone score, S. epidermidis ATCC 12228” value [4, 9] was 2.

In the case of CC1OC(OC2C(Oc3c4cc5cc3Oc3ccc(cc3Cl)C(O)C3NC(=O)C(NC(=O)C5NC(=O)C(CC(N)=O)NC(=O)C(NC(=O)C(N)CSCc5ccccc5)C(O)c5ccc(c(Cl)c5)O4)c4ccc(O)c(c4)-c4c(O)cc(O)cc4C(C(=O)O)NC3=O)OC(CO)C(O)C2O)CC(C)(NCc2ccc(-c3ccc(Cl)cc3)cc2)C1O (centres unmarked) [Compound 332], the MIC E. faecium CL 4931 [1] was 25 µg/mL.

CC1OC(OC2C(Oc3c4cc5cc3Oc3ccc(cc3Cl)C(O)C3NC(=O)C(NC(=O)C5NC(=O)C(CC(N)=O)NC(=O)C(NC(=O)C(N)COCc5ccccc5)C(O)c5ccc(c(Cl)c5)O4)c4ccc(O)c(c4)-c4c(O)cc(O)cc4C(C(=O)O)NC3=O)OC(CO)C(O)C2O)CC(C)(NCc2ccc(-c3ccc(Cl)cc3)cc2)C1O (centres unmarked) [Compound 342] was tested, and the MIC S. aureus ATCC 33591 [6] was 0.78 µg/mL, the MIC E. faecium CL 4931 [1] was 25 µg/mL and the MIC E. faecium ATCC 49624 [2] was 0.39 µg/mL. It also gave an MIC S. aureus ATCC 29213 [7] of 0.78 µg/mL.

With CNC(COC(C)(C)C)C(=O)NC1C(=O)NC(CC(N)=O)C(=O)NC2C(=O)NC3C(=O)NC(C(=O)NC(C(=O)O)c4cc(O)cc(O)c4-c4cc3ccc4O)C(O)c3ccc(c(Cl)c3)Oc3cc2cc(c3OC2OC(CO)C(O)C(O)C2OC2CC(C)(NCc3ccc(-c4ccc(Cl)cc4)cc3)C(O)C(C)O2)Oc2ccc(cc2Cl)C1O (centres unmarked) [Compound 343] the MIC S. aureus ATCC 33591 [6] was 0.78 µg/mL, the MIC E. faecium CL 4931 [1] was 25 µg/mL and the MIC E. faecium ATCC 49624 [2] was 0.39 µg/mL.

Work on CC(OC(C)(C)C)C(N)C(=O)NC1C(=O)NC(CC(N)=O)C(=O)NC2C(=O)NC3C(=O)NC(C(=O)NC(C(=O)O)c4cc(O)cc(O)c4-c4cc3ccc4O)C(O)c3ccc(c(Cl)c3)Oc3cc2cc(c3OC2OC(CO)C(O)C(O)C2OC2CC(C)(NCc3ccc(-c4ccc(Cl)cc4)cc3)C(O)C(C)O2)Oc2ccc(cc2Cl)C1O (centres unmarked) [Compound 344] yielded an MIC E. faecium CL 4931 [1] of 25 µg/mL and an MIC E. faecium ATCC 49624 [2] of 0.78 µg/mL.

Compound CC1OC(OC2C(Oc3c4cc5cc3Oc3ccc(cc3Cl)C(O)C3NC(=O)C(NC(=O)C5NC(=O)C(CC(N)=O)NC(=O)C(NC(=O)C(N)CSSC(C)(C)C)C(O)c5ccc(c(Cl)c5)O4)c4ccc(O)c(c4)-c4c(O)cc(O)cc4C(C(=O)O)NC3=O)OC(CO)C(O)C2O)CC(C)(NCc2ccc(-c3ccc(Cl)cc3)cc2)C1O (centres unmarked) [Compound 345] has an MIC S. aureus ATCC 33591 [6] of 0.78 µg/mL, an MIC E. faecium CL 4931 [1] of 25 µg/mL and an MIC E. faecium ATCC 49624 [2] of 0.39 µg/mL. It also gave an MIC S. aureus ATCC 29213 [7] of 0.78 µg/mL.

For CCOCC(N)C(=O)NC1C(=O)NC(CC(N)=O)C(=O)NC2C(=O)NC3C(=O)NC(C(=O)NC(C(=O)O)c4cc(O)cc(O)c4-c4cc3ccc4O)C(O)c3ccc(c(Cl)c3)Oc3cc2cc(c3OC2OC(CO)C(O)C(O)C2OC2CC(C)(NCc3ccc(-c4ccc(Cl)cc4)cc3)C(O)C(C)O2)Oc2ccc(cc2Cl)C1O (centres unmarked) [Compound 524], the MIC S. aureus ATCC 33591 [6] was 0.39 µg/mL, the MIC E. faecium CL 4931 [1] was 25 µg/mL and the MIC E. faecium ATCC 49624 [2] was 0.25 µg/mL. For the same compound, the MIC S. aureus ATCC 29213 [7] was 0.39 µg/mL.

In the case of CCOCC(NC)C(=O)NC1C(=O)NC(CC(N)=O)C(=O)NC2C(=O)NC3C(=O)NC(C(=O)NC(C(=O)O)c4cc(O)cc(O)c4-c4cc3ccc4O)C(O)c3ccc(c(Cl)c3)Oc3cc2cc(c3OC2OC(CO)C(O)C(O)C2OC2CC(C)(NCc3ccc(-c4ccc(Cl)cc4)cc3)C(O)C(C)O2)Oc2ccc(cc2Cl)C1O (centres unmarked) [Compound 527], the MIC S. aureus ATCC 33591 [6] was 0.39 µg/mL, the MIC E. faecium CL 4931 [1] was 25 µg/mL and the MIC E. faecium ATCC 49624 [2] was 0.25 µg/mL. The MIC S. aureus ATCC 29213 [7] was 0.39 µg/mL.
